This is an account of results in patent US20240092744A1, “TRICYCLIC COMPOUND, AND PREPARATION METHOD THEREFOR AND MEDICAL USE THEREOF” (THE NATIONAL INSTITUTES OF PHARMACEUTICAL R&D CO., LTD., priority 2020, published 2024).

The experiment is described as follows: Determination of aldehyde capture rate (nonenal as model aldehyde, HPLC quantification). The note with it: for Aldehyde consumption (100%): 0.05 mM compound, 0.025 mM nonenal, room temperature; for Capture rate (slope of the capture curve per unit time): higher absolute value of the slope = higher capture rate. As for the experimental part: In the aldehyde capture test disclosed in the present invention, the stable lipid metabolite, nonenal, was used as the model aldehyde to react with the compound of the Example. The specific protocol was as follows.
0.05 mM of the compounds of the Examples of the present invention were precisely weighed respectively and dissolved in 1.2 mL of a mixed solution (v/v=1:1) of triolein (Aladdin, G105172-5g) and linoleic acid (Aladdin, L100442-25g), respectively. 2.5 mL of PBS (Solarbio, P1020) solution containing 20% Captisol® (Aladdin, Cl25030-25 g) was added, and the solution was stirred at room temperature overnight. After the example compound was completely dissolved, 0.025 mM nonenal (Sigma, 255653-5G) was added, and the solution was stirred vigorously at room temperature. […] The solution was mixed vigorously by vortex for 2 minutes, and centrifuged at a low speed of 1000 r/min for 3 minutes. The supernatant was transferred to an injection vial. The nonenal in the reaction mixture was analyzed quantitatively by high performance liquid chromatography. The adduct resulted from the example compound of the present invention and nonenal was analyzed qualitatively by high performance liquid chromatography-mass spectrometry.
Liquid Chromatograph: Waters I Class;
Column: ACQUITY UPLC HSS T3 1.8 μm;
Column temperature: 40° C.;
Liquid chromatography condition: mobile phase A: acetonitrile containing 0.1% formic acid; B: water containing 0.1% formic acid;
Injection volume: 0.5 mL.
Gradient of the mobile phases: […]
In the developed detection method, the retention time of the model aldehyde nonenal was 2.42 minutes. • Mass spectrometry conditions: • Mass spectrometer: Waters TQ-S micro • Ion source: ESI^+ • Capillary voltage: 0.5 kV • Cone voltage: 10V • Source temperature: 150° C. • Degassing temperature: 500° C., degassing flow: 1000 L/Hr • SIM mode • m/z: 225.24 [(mExample 1−OH)+H]^+, 365.42 [madduct 1+H]^+
The time-varying diagram of the capture reaction of the compounds of the examples of the present invention to nonenal is shown in FIG. 1.

As to `Cn1c2ccccc2c2nc(C(C)(C)O)c(N)cc21` [Example 11, 2-(3-Amino-5-methyl-5H-pyrido[3,2-b]indol-2-yl)propan-2-ol], for the setting “135 minutes”, the “Aldehyde consumption (100%)” value is on record as 7.71% and the “Capture rate (slope of the capture curve per unit time)” value is listed as −0.06. Where the note is “180 minutes”, the “Aldehyde consumption (100%)” value is given as 12.33% and the “Capture rate (slope of the capture curve per unit time)” value was −0.08.

`CC(C)(O)c1nc2c(cc1N)Oc1ccccc1O2` [Example 9, 2-(3-Aminobenzo[5,6][1,4]dioxino[2,3-b]pyridin-2-yl)propan-2-ol]: the “Aldehyde consumption (100%)” value reads like this: (135 minutes) 0.10%; (180 minutes) 0.10%. Moreover, the “Capture rate (slope of the capture curve per unit time)” value reads like this: (135 minutes) −0.01; (180 minutes) −0.04.

Consider `CC(C)(O)c1cc2c(cc1N)N(Cc1ccccc1)c1ccccc1O2` [Example 27, 2-(2-Amino-10-benzyl-10H-phenoxazin-3-yl)propan-2-ol], for which, where the note is “135 minutes”, the “Aldehyde consumption (100%)” value is given as 14.37% and the “Capture rate (slope of the capture curve per unit time)” value was −0.11. Further, for the setting “180 minutes”, the “Aldehyde consumption (100%)” value was 17.87% and the “Capture rate (slope of the capture curve per unit time)” value is given as −0.10.

For the molecule `Cn1c2ccccc2c2cc(N)c(C(C)(C)O)cc21` [Example 3, 2-(3-Amino-9-methyl-9H-carbazol-2-yl)propan-2-ol], the “Aldehyde consumption (100%)” value is 0.11% (135 minutes) and 1.38% (180 minutes). Moreover, the “Capture rate (slope of the capture curve per unit time)” value (135 minutes) is −0.01 and the “Capture rate (slope of the capture curve per unit time)” value (180 minutes) is recorded as −0.02.

Take `CC(C)(O)c1cc2c(cc1N)Oc1ccc(Cl)cc1O2` [Example 26]: under “135 minutes”, the “Aldehyde consumption (100%)” value came to 2.02% and the “Capture rate (slope of the capture curve per unit time)” value was −0.02. Where the note is “180 minutes”, the “Aldehyde consumption (100%)” value amounted to 5.34% and the “Capture rate (slope of the capture curve per unit time)” value is given as −0.03.

For `Cn1c2ccc(Cl)cc2c2cc(N)c(C(C)(C)O)nc21` [Example 13, 2-(3-Amino-6-chloro-9-methyl-9H-pyrido[2,3-b]indol-2-yl)propan-2-ol], under “135 minutes”, the “Aldehyde consumption (100%)” value was 6.03% and the “Capture rate (slope of the capture curve per unit time)” value was −0.12. Further, for the setting “180 minutes”, the “Aldehyde consumption (100%)” value amounted to 14.83% and the “Capture rate (slope of the capture curve per unit time)” value is on record as −0.08.

`CN1c2ccccc2Oc2cc(C(C)(C)O)c(N)cc21` [Example 5, 2-(2-Amino-10-methyl-10H-phenoxazin-3-yl)propan-2-ol]: where the note is “135 minutes”, the “Aldehyde consumption (100%)” value was 15.06% and the “Capture rate (slope of the capture curve per unit time)” value is recorded as −0.14. Where the note is “180 minutes”, the “Aldehyde consumption (100%)” value amounted to 19.05% and the “Capture rate (slope of the capture curve per unit time)” value was −0.10.

Consider `Cn1c2cc(Cl)ccc2c2cc(N)c(C(C)(C)O)nc21` [Example 12, 2-(3-Amino-7-chloro-9-methyl-9H-pyrido[2,3-b]indol-2-yl)propan-2-ol], for which, under “135 minutes”, the “Aldehyde consumption (100%)” value is listed as 17.18% and the “Capture rate (slope of the capture curve per unit time)” value was −0.24. Besides, where the note is “180 minutes”, the “Aldehyde consumption (100%)” value was 30.31% and the “Capture rate (slope of the capture curve per unit time)” value is −0.16.

Turning to `CC(C)(O)c1cc2c(cc1N)Oc1ncccc1O2` [Example 15, 2-(8-Aminobenzo[5,6][1,4]dioxino[2,3-b]pyridin-7-yl)propan-2-ol], for the setting “135 minutes”, the “Aldehyde consumption (100%)” value is recorded as 23.50% and the “Capture rate (slope of the capture curve per unit time)” value is −0.15. Moreover, where the note is “180 minutes”, the “Aldehyde consumption (100%)” value turned out to be 30.00% and the “Capture rate (slope of the capture curve per unit time)” value is listed as −0.17.

Consider `CC(C)(O)c1cc2c(cc1N)Oc1ccc(F)cc1O2` [Example 21], for which, where the note is “135 minutes”, the “Aldehyde consumption (100%)” value worked out at 6.92% and the “Capture rate (slope of the capture curve per unit time)” value is on record as −0.05. Besides, where the note is “180 minutes”, the “Aldehyde consumption (100%)” value turned out to be 10.06% and the “Capture rate (slope of the capture curve per unit time)” value is given as −0.05.

For the molecule `CC(C)(O)c1cc2oc3ccccc3c2cc1N` [Example 8, 2-(2-Aminodibenzo[b,d]furan-3-yl)propan-2-ol], under “135 minutes”, the “Aldehyde consumption (100%)” value was 8.30% and the “Capture rate (slope of the capture curve per unit time)” value is listed as −0.22. Besides, under “180 minutes”, the “Aldehyde consumption (100%)” value is reported as 17.80% and the “Capture rate (slope of the capture curve per unit time)” value is −0.07.

Take `CC(C)(O)c1nc2c(cc1N)oc1ccccc12` [Example 10, 2-(3-Aminobenzofuro[3,2-b]pyridin-2-yl)propan-2-ol]: the “Aldehyde consumption (100%)” value is on record as 9.15% (135 minutes) and 9.48% (180 minutes). Further, the “Capture rate (slope of the capture curve per unit time)” value (135 minutes) is given as −0.08 and the “Capture rate (slope of the capture curve per unit time)” value (180 minutes) was −0.06.

`CC(C)(O)c1cc2c(cc1N)C(C)(C)c1ccccc1-2` [Example 14, 2-(2-Amino-9,9-dimethyl-9H-fluoren-3-yl)propan-2-ol]: under “135 minutes”, the “Aldehyde consumption (100%)” value is 36.30% and the “Capture rate (slope of the capture curve per unit time)” value was −0.19. Further, for the setting “180 minutes”, the “Aldehyde consumption (100%)” value stood at 44.51% and the “Capture rate (slope of the capture curve per unit time)” value is reported as −0.28.

Regarding `CC(C)(O)c1cc2c(cc1N)Oc1nccnc1O2` [Example 23, 2-(8-Aminobenzo[5,6][1,4]dioxino[2,3-b]pyrazin-7-yl)propan-2-ol], the “Aldehyde consumption (100%)” value (135 minutes) came to 16.24% and the “Aldehyde consumption (100%)” value (180 minutes) is given as 17.89%. For the same molecule, the “Capture rate (slope of the capture curve per unit time)” value reads like this: (135 minutes) −0.12; (180 minutes) −0.11.

In the case of `CC(C)(O)c1cc2c(cc1N)Oc1cc(Cl)ccc1O2` [Example 25], the “Aldehyde consumption (100%)” value is, setting by setting: (135 minutes) 4.87%; (180 minutes) 4.88%. Moreover, the “Capture rate (slope of the capture curve per unit time)” value (135 minutes) is given as −0.03 and the “Capture rate (slope of the capture curve per unit time)” value (180 minutes) is −0.03.

Take `CC(C)(O)c1cc2c(cc1N)Oc1cccnc1O2` [Example 19, 2-(7-Aminobenzo[5,6][1,4]dioxino[2,3-b]pyridin-8-yl)propan-2-ol]: under “135 minutes”, the “Aldehyde consumption (100%)” value came out at 19.40% and the “Capture rate (slope of the capture curve per unit time)” value is recorded as −0.14. Moreover, under “180 minutes”, the “Aldehyde consumption (100%)” value amounted to 36.90% and the “Capture rate (slope of the capture curve per unit time)” value is −0.25.

On to `COC1c2ccccc2-c2cc(C(C)(C)O)c(N)cc21` (stereo not drawn) [Example 28, 2-(2-Amino-9-methoxy-9H-fluoren-3-yl)propan-2-ol], for which, where the note is “135 minutes”, the “Aldehyde consumption (100%)” value worked out at 3.77% and the “Capture rate (slope of the capture curve per unit time)” value is reported as −0.02. Besides, under “180 minutes”, the “Aldehyde consumption (100%)” value stood at 4.37% and the “Capture rate (slope of the capture curve per unit time)” value is listed as −0.03.

As to `CC(C)(O)c1cc2c(cc1N)Oc1cc(F)ccc1O2` [Example 20], for the setting “135 minutes”, the “Aldehyde consumption (100%)” value was determined as 23.91% and the “Capture rate (slope of the capture curve per unit time)” value is given as −0.18. Also, under “180 minutes”, the “Aldehyde consumption (100%)” value is 25.45% and the “Capture rate (slope of the capture curve per unit time)” value is −0.14.

Take `CN1c2ccccc2Oc2cc(N)c(C(C)(C)O)cc21` [Example 6, 2-(3-Amino-10-methyl-10H-phenoxazin-2-yl)propan-2-ol]: the “Aldehyde consumption (100%)” value is listed as 5.40% (135 minutes) and 11.94% (180 minutes). The “Capture rate (slope of the capture curve per unit time)” value by setting is: (135 minutes) −0.08; (180 minutes) −0.07.

Consider `CC(C)(C)OC(=O)N1c2ccccc2Oc2cc(C(C)(C)O)c(N)cc21` [Example 29, tert-Butyl 2-amino-3-(2-hydroxypropan-2-yl)-10H-phenoxazine-10-carboxylate], for which, for the setting “135 minutes”, the “Aldehyde consumption (100%)” value is given as 6.52% and the “Capture rate (slope of the capture curve per unit time)” value was −0.04. For the same molecule, where the note is “180 minutes”, the “Aldehyde consumption (100%)” value is 6.53% and the “Capture rate (slope of the capture curve per unit time)” value is reported as −0.04.

As for `CC(C)(O)c1nc2oc3ccccc3c2cc1N` [Example 1, 2-(3-Aminobenzofuro[2,3-b]pyridin-2-yl)propan-2-ol], for the setting “135 minutes”, the “Aldehyde consumption (100%)” value is on record as 24.57% and the “Capture rate (slope of the capture curve per unit time)” value is recorded as −0.13. Also, for the setting “180 minutes”, the “Aldehyde consumption (100%)” value is on record as 34.69% and the “Capture rate (slope of the capture curve per unit time)” value is −0.14.
